Data as given in patent publication US10010539B2, “Pyrazole, triazole and tetrazole orexin receptor antagonists” (MERCK SHARP & DOHME CORP., priority 2014, dated 2018).

Assays:
human orexin-2 receptor = human orexin-2 receptor (Homo sapiens (Human), UniProt O43614); test: FLIPR Ca2+ Flux Assay, orexin-2 receptor (hOX2R FLIPR); type: cell-based; details: CHO cells expressing the human orexin-2 receptor; agonist 70 pM Ala-6,12 human orexin-A
In short: (§1)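 Steps: Fluo-4AM loading of CHO cells (rat OX1R or human OX2R) for 60 min at 37 °C; 5 min compound preincubation; addition of Ala-6,12 orexin-A at 70 pM final; 5 min fluorescence recording. Antagonist IC50 is derived from peak heights against the uninhibited agonist response.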

[1] = target: hOXIR (orexin-1 receptor) (Homo sapiens, UniProt O43613); test: FLIPR Ca2+ Flux Assay, orexin-1 receptor (hOXIR FLIPR); type: cell-based; details: CHO cells expressing the orexin-1 receptor (method text: rat; table head: hOXIR); agonist 70 pM Ala-6,12 human orexin-A
In short: as §1

human orexin-2 receptor, sequence (O43614 whole entry): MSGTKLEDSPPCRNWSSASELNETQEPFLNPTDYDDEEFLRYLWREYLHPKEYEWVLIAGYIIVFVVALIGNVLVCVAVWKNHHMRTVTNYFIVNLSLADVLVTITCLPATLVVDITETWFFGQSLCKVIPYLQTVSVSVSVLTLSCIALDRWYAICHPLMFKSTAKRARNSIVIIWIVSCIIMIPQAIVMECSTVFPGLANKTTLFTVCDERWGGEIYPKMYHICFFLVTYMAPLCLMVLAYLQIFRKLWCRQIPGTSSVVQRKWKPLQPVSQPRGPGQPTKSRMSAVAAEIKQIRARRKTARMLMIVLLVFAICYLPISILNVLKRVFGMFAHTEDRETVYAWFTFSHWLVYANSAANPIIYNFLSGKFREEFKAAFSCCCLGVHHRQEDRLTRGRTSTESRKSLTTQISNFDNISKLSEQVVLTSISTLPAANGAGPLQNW

## C[C@@H]1CC[C@@H](n2cc(C(C)(C)O)cn2)CN1C(=O)c1ccccc1OC(F)(F)F [Example 83, 2-{1-[(3R,6R)-6-Methyl-1-{[2-(trifluoromethoxy)phenyl]carbonyl}piperidin-3-yl]-1H-pyrazol-4-yl}propan-2-ol]
Human orexin-2 receptor
  IC50: 31.4 nM
[1]
  IC50: > 10000 nM

## C[C@@H]1CC[C@@H](n2cc(C(C)(C)O)cn2)CN1C(=O)c1ccc(F)cc1-n1nccn1 [Example 91, 2-{1-[(3R,6R)-1-{[4-Fluoro-2-(2H-1,2,3-triazol-2-yl)phenyl]carbonyl}-6-methylpiperidin-3-yl]-1H-pyrazol-4-yl}propan-2-ol]
Human orexin-2 receptor
  IC50: 18.8 nM
[1]
  IC50: > 10000 nM

## COc1cccc(-n2nccn2)c1C(=O)N1C[C@H](n2ncc(C(C)(C)O)n2)CC[C@H]1C [Example 51, 2-{2-[(3R,6R)-1-{[2-methoxy-6-(2H-1,2,3-triazol-2-yl)phenyl]carbonyl}-6-methylpiperidin-3-yl]-2H-1,2,3-triazol-4-yl}propan-2-ol]
Human orexin-2 receptor
  IC50: 67.4 nM
[1]
  IC50: > 10000 nM

## Cc1nn([C@@H]2CC[C@@H](C)N(C(=O)c3ccccc3-n3cccn3)C2)nc1C(C)(C)O [Example 71, 2-{5-Methyl-2-[(3R,6R)-6-methyl-1-{[2-(1H-pyrazol-1-yl)phenyl]carbonyl}piperidin-3-yl]-2H-1,2,3-triazol-4-yl}propan-2-ol]
Human orexin-2 receptor
  IC50: 9.3 nM
[1]
  IC50: 2710 nM

## COC(=O)c1ncccc1C(=O)N1C[C@H](n2ncc(C(C)(C)O)n2)CC[C@H]1C [Example 8, Methyl 3-((2R,5R)-5-(4-(2-hy-droxypropan-2-yl)-2H-1,2,3-triazol-2-yl)-2-methylpiperidine-1-carbonyl)picolinate]
Human orexin-2 receptor
  IC50: 1780 nM
[1]
  IC50: > 10000 nM

## CCCc1ccccc1C(=O)N1C[C@H](n2ncc(C(C)(C)O)n2)CC[C@H]1C [Example 4, ((2R,5R)-5-(4-(2-Hydroxypropan-2-yl)-2H-1,2,3-triazol-2-yl)-2-methylpiperidin-1-yl)(2-propylphenyl)methanone]
Human orexin-2 receptor
  IC50: 15.9 nM
[1]
  IC50: 8110 nM

## Cc1nc(-c2ccccc2C(=O)N2C[C@H](n3ncc(C(C)(C)O)n3)CC[C@H]2C)no1 [Example 47, 2-{2-[(3R,6R)-6-methyl-1-{[2-(5-methyl-1,2,4-oxadiazol-3-yl)phenyl]carbonyl}piperidin-3-yl]-2H-1,2,3-triazol-4-yl}propan-2-ol]
Human orexin-2 receptor
  IC50: 45.7 nM
[1]
  IC50: > 10000 nM

## Cc1cnn(-c2ncccc2C(=O)N2C[C@H](n3ncc(C(C)(C)O)n3)CC[C@H]2C)c1 [Example 10, ((2R,5R)-5-(4-(2-Hydroxypropan-2-yl)-2H-1,2,3-triazol-2-yl)-2-methylpiperidin-1-yl)(2-(4-methyl-1H-pyrazol-1-yl)pyridin-3-yl)methanone]
Human orexin-2 receptor
  IC50: 26 nM
[1]
  IC50: > 10000 nM

## C[C@@H]1CC[C@@H](n2cc(C(C)(C)O)cn2)CN1C(=O)c1ccccc1[C@H]1CC1(F)F [Example 86, 2-{1-[(3R,6R)-1-({2-[(1R)-2,2-Difluorocyclopropyl]phenyl}carbonyl)-6-methylpiperidin-3-yl]-1H-pyrazol-4-yl}propan-2-ol]
Human orexin-2 receptor
  IC50: 152 nM
[1]
  IC50: > 10000 nM

## C[C@@H]1CC[C@@H](n2cc(C(C)(C)O)cn2)CN1C(=O)c1nccnc1-n1nccn1 [Example 101, 2-{1-[(3R,6R)-6-Methyl-1-{[3-(2H-1,2,3-triazol-2-yl)pyrazin-2-yl]carbonyl}piperidin-3-yl]-1H-pyrazol-4-yl}propan-2-ol]
Human orexin-2 receptor
  IC50: 479 nM
[1]
  IC50: > 10000 nM

## Cc1cccc(-n2nccn2)c1C(=O)N1C[C@H](n2ncc(C(C)(C)O)n2)CC[C@H]1C [Example 53, 2-{2-[(3R,6R)-6-methyl-1-{[2-methyl-6-(2H-1,2,3-triazol-2-yl)phenyl]carbonyl}piperidin-3-yl]-2H-1,2,3-triazol-4-yl}propan-2-ol]
Human orexin-2 receptor
  IC50: 31.1 nM
[1]
  IC50: 1810 nM

## Cc1nn([C@@H]2CC[C@@H](C)N(C(=O)c3ccccc3OC(F)(F)F)C2)nc1C(C)(C)O [Example 67, 2-{5-Methyl-2-[(3R,6R)-6-methyl-1-{[2-(trifluoromethoxy)phenyl]carbonyl}piperidin-3-yl]-2H-1,2,3-triazol-4-yl}propan-2-ol]
Human orexin-2 receptor
  IC50: 10.1 nM
[1]
  IC50: 1150 nM

## C[C@@H]1CC[C@@H](n2cc(C(C)(C)O)cn2)CN1C(=O)c1ccccc1-n1cccn1 [Example 93, 2-{1-[(3R,6R)-6-Methyl-1-{[2-(1H-pyrazol-1-yl)phenyl]carbonyl}piperidin-3-yl]-1H-pyrazol-4-yl}propan-2-ol]
Human orexin-2 receptor
  IC50: 92.7 nM
[1]
  IC50: > 10000 nM

## COCc1ccccc1C(=O)N1C[C@H](n2ncc(C(C)(C)O)n2)CC[C@H]1C [Example 56, 2-{2-[(3R,6R)-1-{[2-(methoxymethyl)phenyl]carbonyl}-6-methylpiperidin-3-yl]-2H-1,2,3-triazol-4-yl}propan-2-ol]
Human orexin-2 receptor
  IC50: 308 nM
[1]
  IC50: > 10000 nM

## C[C@@H]1CC[C@@H](n2cc([C@H](O)C(F)(F)F)cn2)CN1C(=O)c1ccccc1-n1nccn1 [Example 103, (1S)-2,2,2-Trifluoro-1-{1-[(3R,6R)-6-methyl-1-{[2-(2H-1,2,3-triazol-2-yl)phenyl]carbonyl}piperidin-3-yl]-1H-pyrazol-4-yl}ethanol]
Human orexin-2 receptor
  IC50: 102 nM
[1]
  IC50: > 10000 nM

## C[C@@H]1CC[C@@H](n2ncc(C(C)(C)O)n2)CN1C(=O)c1ccccc1-n1ncnn1 [Example 34, 2-{2-[(3R,6R)-6-methyl-1-{[2-(2H-tetrazol-2-yl)phenyl]carbonyl}piperidin-3-yl]-2H-1,2,3-triazol-4-yl}propan-2-ol]
Human orexin-2 receptor
  IC50: 36.8 nM
[1]
  IC50: > 10000 nM

## C[C@@H]1CC[C@@H](n2cc(C(C)(O)C(F)(F)F)cn2)CN1C(=O)c1ccccc1-n1nccn1 (stereo partly drawn) [Example 104, 1,1,1-Trifluoro-2-{1-[(3R,6R)-6-methyl-1-{[2-(2H-1,2,3-triazol-2-yl)phenyl]carbonyl}piperidin-3-yl]-1H-pyrazol-4-yl}propan-2-ol]
Human orexin-2 receptor
  IC50: 13.4 nM
[1]
  IC50: 2010 nM

## C[C@@H]1CC[C@@H](n2ncc(C(C)(C)O)n2)CN1C(=O)c1ncccc1-n1nccn1 [Example 58, 2-{2-[(3R,6R)-6-Methyl-1-{[3-(2H-1,2,3-triazol-2-yl)pyridin-2-yl]carbonyl}piperidin-3-yl]-2H-1,2,3-triazol-4-yl}propan-2-ol]
Human orexin-2 receptor
  IC50: 44.9 nM
[1]
  IC50: > 10000 nM

## COc1ccc(C(=O)N2C[C@H](n3ncc(C(C)(C)O)n3)CC[C@H]2C)c(-n2nccn2)n1 [Example 45, 2-{2-[(3R,6R)-1-{[6-methoxy-2-(2H-1,2,3-triazol-2-yl)pyridin-3-yl]carbonyl}-6-methylpiperidin-3-yl]-2H-1,2,3-triazol-4-yl}propan-2-ol]
Human orexin-2 receptor
  IC50: 51.4 nM
[1]
  IC50: > 10000 nM

## CC(O)c1cnn([C@@H]2CC[C@@H](C)N(C(=O)c3cccnc3OCC(F)F)C2)n1 (stereo partly drawn) [Example 61, 1-{2-[(3R,6R)-1-{[2-(2,2-Difluoroethoxy)pyridin-3-yl]carbonyl}-6-methylpiperidin-3-yl]-2H-1,2,3-triazol-4-yl}ethanol]
Human orexin-2 receptor
  IC50: 681 nM
[1]
  IC50: > 10000 nM

## C[C@@H]1CC[C@@H](n2ncc(C(C)(C)O)n2)CN1C(=O)c1cccc(Oc2ccccc2)c1 [Example 50, 2-(2-{(3R,6R)-6-methyl-1-[(3-phenoxyphenyl)carbonyl]piperidin-3-yl}-2H-1,2,3-triazol-4-yl)propan-2-ol]
Human orexin-2 receptor
  IC50: 126 nM
[1]
  IC50: > 10000 nM

## C[C@@H]1CC[C@@H](n2ncc(Br)n2)CN1C(=O)c1ccccc1-n1nccn1 [Example 29, (2-(2H-1,2,3-triazol-2-yl)phenyl)((2R,5R)-5-(4-bromo-2H-1,2,3-triazol-2-yl)-2-methylpiperidin-1-yl)methanone]
Human orexin-2 receptor
  IC50: 362 nM
[1]
  IC50: > 10000 nM

## CCOc1ncccc1C(=O)N1C[C@H](n2nc(C)c(C(C)(C)O)n2)CC[C@H]1C [Example 65, 2-(2-{(3R,6R)-1-[(2-Ethoxypyridin-3-yl)carbonyl]-6-methylpiperidin-3-yl}-5-methyl-2H-1,2,3-triazol-4-yl)propan-2-ol]
Human orexin-2 receptor
  IC50: 15.1 nM
[1]
  IC50: 2930 nM

## C[C@@H]1CC[C@@H](n2cc(C(C)(C)O)cn2)CN1C(=O)c1ccccc1[C@@H]1CC1(F)F [Example 85, 2-{1-[(3R,6R)-1-({2-[(1S)-2,2-Difluorocyclopropyl]phenyl}carbonyl)-6-methylpiperidin-3-yl]-1H-pyrazol-4-yl}propan-2-ol]
Human orexin-2 receptor
  IC50: 9.4 nM
[1]
  IC50: 2640 nM

## C[C@@H]1CC[C@@H](n2ncc(C(C)(C)O)n2)CN1C(=O)c1cccnc1-n1nccn1 [Example 59, 2-{2-[(3R,6R)-6-Methyl-1-{[2-(2H-1,2,3-triazol-2-yl)pyridin-3-yl]carbonyl}piperidin-3-yl]-2H-1,2,3-triazol-4-yl}propan-2-ol]
Human orexin-2 receptor
  IC50: 400 nM
[1]
  IC50: > 10000 nM
